Data set [1] concerns the target T1, Potassium voltage-gated channel subfamily KQT member 2 (Homo sapiens, UniProt O43526). Description: Channel opening activity at KCNQ2 (unknown origin) expressed in CHO cells after 10 mins by atomic absorption spectrophotometry-based Rb+ flow assay. In kind it is cell-based.
Data set [2] deals with T1, Potassium voltage-gated channel subfamily KQT member 2. Briefly: Channel opening activity at KCNQ2 (unknown origin) expressed in CHO cells at 10 uM incubated for 20 mins in dark measured every 2 secs for 10 secs by fluorescence-based thallium influx assay relative to control. In kind it is cell-based.
Data set [3] shares this target. Description: Channel opening activity at KCNQ2 (unknown origin) expressed in CHO cells assessed as conductivity (I/I0 ratio) at 10 uM by electrophysiological patch-clamp test. In kind it is cell-based.
The target is the same in data set [4]. Description: Channel opening activity at KCNQ2 (unknown origin) expressed in CHO cells assessed as change in half activation potential at 10 uM by electrophysiological patch-clamp test. In kind it is cell-based. Background: The patch-clamp technique gives a direct electrical read-out from membranes.
Data set [5] deals with Mus musculus. Description: Anticonvulsant activity in maximal electroshock induced Kunming mouse assessed as epilepsy incidence at 25 mg/kg, ip measured after 30 mins. The class given is functional. (In general: In the maximal electroshock model the usual endpoint is tonic extension of the hind limbs.)
Data set [6] deals with Rattus norvegicus. Briefly: Neurotoxicity in Sprague-Dawley rat at 25 mg/kg, ip measured after 30 mins by rotating-rod test. Conditions: in vivo, 0.5 h. The class given is toxicity, organism-based.
The test system of data set [7] is Mus musculus. Description: Anticonvulsant activity in ip dosed maximal electroshock induced Kunming mouse assessed as suppression of hind legs rigidity measured after 30 mins. In kind it is functional, organism-based.
The subject of data set [8] is Mus musculus. Briefly: Anticonvulsant activity in maximal electroshock induced Kunming mouse assessed as epilepsy incidence at 5 mg/kg, ip measured after 30 mins. The class given is functional.
Data set [9] deals with Mus musculus. Briefly: Anticonvulsant activity in maximal electroshock induced Kunming mouse assessed as epilepsy incidence at 3 mg/kg, ip measured after 30 mins. In kind it is functional.
The test system of data set [10] is Mus musculus. Briefly: Anticonvulsant activity in maximal electroshock induced Kunming mouse assessed as epilepsy incidence at 1 mg/kg, ip measured after 30 mins. The class given is functional.
For data set [11], the system named is Mus musculus. Briefly: Anticonvulsant activity in maximal electroshock induced Kunming mouse assessed as epilepsy incidence at 0.3 mg/kg, ip measured after 30 mins. The class given is functional.
Data set [12] has as its system Rattus norvegicus. Description: Neurotoxicity in Sprague-Dawley rat at 5 mg/kg, ip measured after 30 mins by rotating-rod test. The class given is toxicity, organism-based. As to conditions: in vivo, 0.5 h.
Data set [13] has as its system Rattus norvegicus. Briefly: Neurotoxicity in Sprague-Dawley rat at 3 mg/kg, ip measured after 30 mins by rotating-rod test. In kind it is toxicity, organism-based. As to conditions: in vivo, 0.5 h.
The test system of data set [14] is Rattus norvegicus. Description: Neurotoxicity in Sprague-Dawley rat at 1 mg/kg, ip measured after 30 mins by rotating-rod test. The class given is toxicity, organism-based. As to conditions: in vivo, 0.5 h.
Data set [15] deals with Rattus norvegicus. Briefly: Neurotoxicity in Sprague-Dawley rat at 0.3 mg/kg, ip measured after 30 mins by rotating-rod test. The class given is toxicity, organism-based. Conditions: in vivo, 0.5 h.
Data set [16] is described as follows: Drug uptake in Kunming mouse brain at 1.5 mg/kg, iv measured after 2 hrs by LC/MS/MS analysis. The class given is ADME, organism-based. Conditions: read-out: Drug uptake.
Data set [17] is described as follows: Drug uptake in Kunming mouse plasma at 1.5 mg/kg, iv measured after 2 hrs by LC/MS/MS analysis. The class given is ADME, organism-based.
Data set [18] in a line: Ratio of drug uptake in Kunming mouse brain to plasma at 1.5 mg/kg, iv measured after 2 hrs by LC/MS/MS analysis. The class given is ADME, organism-based. Conditions: read-out: BPR.
A short description of data set [19]: Drug uptake in Kunming mouse brain at 1.5 mg/kg, iv measured after 30 mins by LC/MS/MS analysis. In kind it is ADME, organism-based. Conditions: read-out: Drug uptake.
The nature of data set [20]: Drug uptake in Kunming mouse plasma at 1.5 mg/kg, iv measured after 30 mins by LC/MS/MS analysis. In kind it is ADME, organism-based.
The nature of data set [21]: Ratio of drug uptake in Kunming mouse brain to plasma at 1.5 mg/kg, iv measured after 30 mins by LC/MS/MS analysis. In kind it is ADME, organism-based. As to conditions: read-out: BPR.
Data set [22] in a line: Drug uptake in Kunming mouse brain at 1.5 mg/kg, iv measured after 5 mins by LC/MS/MS analysis. The class given is ADME, organism-based. Conditions: read-out: Drug uptake.
A short description of data set [23]: Drug uptake in Kunming mouse plasma at 1.5 mg/kg, iv measured after 5 mins by LC/MS/MS analysis. The class given is ADME, organism-based.
The nature of data set [24]: Ratio of drug uptake in Kunming mouse brain to plasma at 1.5 mg/kg, iv measured after 5 mins by LC/MS/MS analysis. The class given is ADME, organism-based. As to conditions: read-out: BPR.
The nature of data set [25]: Drug uptake in Kunming mouse brain at 15 mg/kg, ig measured after 2 hrs by LC/MS/MS analysis. In kind it is ADME, organism-based. Conditions: po, read-out: Drug uptake.
A short description of data set [26]: Drug uptake in Kunming mouse plasma at 15 mg/kg, ig measured after 2 hrs by LC/MS/MS analysis. Conditions: po. In kind it is ADME, organism-based.
Data set [27] in a line: Ratio of drug uptake in Kunming mouse brain to plasma at 15 mg/kg, ig measured after 2 hrs by LC/MS/MS analysis. The class given is ADME, organism-based. Conditions: po, read-out: BPR.
Data set [28] in a line: Drug uptake in Kunming mouse brain at 15 mg/kg, ig measured after 30 mins by LC/MS/MS analysis. In kind it is ADME, organism-based. Conditions: po, read-out: Drug uptake.
The nature of data set [29]: Drug uptake in Kunming mouse plasma at 15 mg/kg, ig measured after 30 mins by LC/MS/MS analysis. Conditions: po. In kind it is ADME, organism-based.
Data set [30] in a line: Ratio of drug uptake in Kunming mouse brain to plasma at 15 mg/kg, ig measured after 30 mins by LC/MS/MS analysis. In kind it is ADME, organism-based. Conditions: po, read-out: BPR.
A short description of data set [31]: Drug uptake in Kunming mouse brain at 15 mg/kg, ig measured after 5 mins by LC/MS/MS analysis. In kind it is ADME, organism-based. As to conditions: po, read-out: Drug uptake.
Data set [32] can be described thus: Drug uptake in Kunming mouse plasma at 15 mg/kg, ig measured after 5 mins by LC/MS/MS analysis. The class given is ADME, organism-based. Conditions: po.
Data set [33] can be described thus: Ratio of drug uptake in Kunming mouse brain to plasma at 15 mg/kg, ig measured after 5 mins by LC/MS/MS analysis. The class given is ADME, organism-based. Conditions: po, read-out: BPR.
A short description of data set [34]: Half life in Sprague-Dawley rat at 1 mg/kg, iv by LC/MS/MS analysis. The class given is ADME, organism-based. Conditions: in vivo.
Data set [35] is described as follows: Tmax in Sprague-Dawley rat at 1 mg/kg, iv by LC/MS/MS analysis. The class given is ADME, organism-based. Conditions: in vivo.
The nature of data set [36]: Cmax in Sprague-Dawley rat at 1 mg/kg, iv by LC/MS/MS analysis. More on the design: dose 1 mg/kg, route intravenous. As to conditions: in vivo. In kind it is ADME, organism-based.
A short description of data set [37]: AUClast in Sprague-Dawley rat at 1 mg/kg, iv by LC/MS/MS analysis. In kind it is ADME, organism-based. Also noted: dose 1 mg/kg, route intravenous, time 0 - last. As to conditions: in vivo.
Data set [38] is described as follows: Apparent volume of distribution in Sprague-Dawley rat at 1 mg/kg, iv by LC/MS/MS analysis. In kind it is ADME, organism-based. Conditions: in vivo, read-out: Vz.
Data set [39] is described as follows: Clearance in Sprague-Dawley rat at 1 mg/kg, iv by LC/MS/MS analysis. The class given is ADME, organism-based. Conditions: in vivo.
Data set [40] can be described thus: MRTlast in Sprague-Dawley rat at 1 mg/kg, iv by LC/MS/MS analysis. In kind it is ADME, organism-based. Conditions: in vivo.
The target of data set [41] is T1, Potassium voltage-gated channel subfamily KQT member 2. Briefly: Potency index, ratio of retigabine EC50 to compound EC50 for channel opening activity at KCNQ2 (unknown origin) expressed in CHO cells by atomic absorption spectrophotometry-based Rb+ flow assay. In kind it is cell-based.

T1 sequence (O43526 whole entry): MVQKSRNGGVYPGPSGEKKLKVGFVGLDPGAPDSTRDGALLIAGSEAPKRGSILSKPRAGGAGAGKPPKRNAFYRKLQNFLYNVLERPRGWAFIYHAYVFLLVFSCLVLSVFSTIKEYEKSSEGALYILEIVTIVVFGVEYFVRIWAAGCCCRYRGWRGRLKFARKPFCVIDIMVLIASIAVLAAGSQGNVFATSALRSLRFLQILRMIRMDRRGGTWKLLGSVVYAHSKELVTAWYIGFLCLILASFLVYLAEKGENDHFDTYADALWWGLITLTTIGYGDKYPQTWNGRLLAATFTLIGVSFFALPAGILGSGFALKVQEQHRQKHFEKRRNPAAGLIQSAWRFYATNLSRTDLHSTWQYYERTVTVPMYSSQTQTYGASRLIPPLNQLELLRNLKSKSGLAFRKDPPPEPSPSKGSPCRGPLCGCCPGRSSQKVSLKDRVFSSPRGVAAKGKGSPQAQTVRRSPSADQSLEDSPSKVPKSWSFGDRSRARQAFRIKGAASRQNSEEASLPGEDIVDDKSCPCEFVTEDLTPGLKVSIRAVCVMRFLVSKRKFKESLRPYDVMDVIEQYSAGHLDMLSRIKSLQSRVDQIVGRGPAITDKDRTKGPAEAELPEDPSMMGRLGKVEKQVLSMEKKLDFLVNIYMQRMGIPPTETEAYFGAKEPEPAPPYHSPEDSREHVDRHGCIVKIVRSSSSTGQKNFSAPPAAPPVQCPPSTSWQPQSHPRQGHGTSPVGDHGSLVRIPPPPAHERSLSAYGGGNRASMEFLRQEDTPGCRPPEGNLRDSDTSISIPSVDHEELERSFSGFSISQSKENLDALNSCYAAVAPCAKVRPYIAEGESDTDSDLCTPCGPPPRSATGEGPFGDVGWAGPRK

With `Cc1csc2c1CN(c1cc(C)c(NC(=O)CC(C)(C)C)c(C)c1)CC2`, in data set [1], the EC50 came to 300 nM.

For `Cc1cc(N2CCn3cccc3C2)cc(C)c1NC(=O)CC(C)(C)C`, the EC50 in data set [1] was 34 nM. In data set [2], the Activity was 4.87%. For the same compound, the Ratio in data set [3] was determined as 1.65. In addition, in [4], the V1/2 worked out at 46.1 mV.

Take `Cc1cc(N2CCCCc3cc(Cl)ccc32)cc(C)c1NC(=O)CC(C)(C)C`: the EC50 in data set [1] was 140 nM.

As to `Cc1ccc2c(c1)CCCCN2c1cc(C)c(NC(=O)CC(C)(C)C)c(C)c1`, the EC50 in data set [1] came out at 40 nM.

On to `Cc1cc2c(s1)CN(c1cc(C)c(NC(=O)CC(C)(C)C)c(C)c1)CC2`, for which the EC50 in data set [1] came out at 30 nM.

In the case of `CCOC(=O)Nc1ccc(NCc2ccc(F)cc2)cc1N` [EZOGABINE], the Ratio in [3] amounted to 2.12. Also, the Activity is 15% in the data set with Mus musculus [5] and 0% in the data set on Rattus norvegicus [6]. Also, the V1/2 in [4] was determined as 40 mV.

Take `Cc1cc(N2CCc3cc(F)sc3C2)cc(C)c1NC(=O)CC(C)(C)C`: in data set [1], the EC50 came to 2930 nM.

With `Cc1cc(N2CCc3ccsc3C2)cc(C)c1NC(=O)CC(C)(C)C`, the EC50 in [1] was determined as 20 nM. Also, the Activity in data set [2] stood at 64.8%. In addition, the Ratio in data set [3] worked out at 0.67. Besides, the V1/2 in data set [4] came to 53.3 mV.

As to `Cc1cc(N2CCc3sccc3C2)cc(C)c1NC(=O)CC(C)(C)C`, the EC50 in data set [1] was determined as 20 nM; in the data set on Mus musculus [7], 1.83 mg/kg. The Activity in data set [2] was 84.2%; in the data set on Mus musculus [8] it was 20%; with Mus musculus [9], 20%; with Mus musculus [10] it was 90%; in the data set on Mus musculus [11], 70%; with Rattus norvegicus [12] it was 0%. Further, the Activity in the data set on Rattus norvegicus [13], in the data set with Rattus norvegicus [14] and in the data set on Rattus norvegicus [15] was 0% throughout. Besides, in data set [3], the Ratio is 1.63. In [4], the V1/2 worked out at 66.2 mV. Further, the concentration at 2 h amounted to 1.27 ng/g in data set [16], 7.85 ng/mL in data set [17], 4.96 ng/g in data set [25] and 52.9 ng/mL in data set [26]. The Kp at 2 h came out at 0.16 in data set [18] and 0.09 in data set [27]. For the same compound, the concentration at 0.5 h is 19 ng/g in data set [19], 137 ng/mL in [20], 30 ng/g in [28] and 243 ng/mL in data set [29]. Besides, the results for the Kp at 0.5 h in data set [21] and in [30] were 0.14 and 0.12, respectively. In addition, the concentration at 5 min is 140 ng/g in data set [22], 771 ng/mL in data set [23], 25 ng/g in data set [31] and 201 ng/mL in data set [32]. Moreover, the Kp at 5 min in [24] is 0.18; in data set [33] it was 0.12. Besides, the half-life (as a rule, the time needed for the level to fall by half in the phase considered) in data set [34] is 329 min. Further, the Tmax (usually the time at which the peak concentration occurs) in [35] came out at 1.8 min. In data set [36], the peak level (Cmax) was 1060 ng/mL. In [37], the AUC(0-t) – broadly, the area under the concentration-time curve up to a stated or last time point – amounted to 687 ng·h/mL. For the same compound, the Vd in [38] stood at 11.2 L/kg. The clearance – broadly, a measure of how efficiently the substance is removed, as volume per time – in data set [39] is 23.6 mL/min/kg. Besides, the MRT last (commonly a mean duration of stay, worked out from the concentration-time curve) in data set [40] amounted to 2.17 h. Moreover, the Ratio EC50 in data set [41] stood at 17.

On to `Cc1cc(N2CCCCc3cc(F)ccc32)cc(C)c1NC(=O)CC(C)(C)C`, for which, in data set [1], the EC50 stood at 250 nM.

Compound `Cc1cc(N2CCc3sc(C#N)cc3C2)cc(C)c1NC(=O)CC(C)(C)C` registered an EC50 in data set [1] of 290 nM.

With `Cc1cc(N2CCc3sc(C(F)(F)F)cc3C2)cc(C)c1NC(=O)CC(C)(C)C`, the EC50 in data set [1] is 120 nM.

Take `Cc1cc(N2CCCCc3cc(Br)ccc32)cc(C)c1NC(=O)CC(C)(C)C`: the EC50 in data set [1] was determined as 1080 nM.

These data come from ChEMBL document CHEMBL4229491, “Design, synthesis and evaluation of novel N-phenylbutanamide derivatives as KCNQ openers for the treatment of epilepsy” (Bioorg Med Chem Lett, 2018).
